Test results: US11814376B2, “Hepatitis b core protein modulators” (Assembly Biosciences, Inc., priority 2015, dated 2023)
Where a name gives a salt, the structure may show the parent alone.

Assays:
AD38 cells = assay: Viability of AD38 cells (Promega CellTiter-Glo); format: cell-based; conditions: 10 μM compound, 6 days, CellTiter-Glo luminescence normalized to DMSO control (100%)
How it was run: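 AD38 cells were seeded at 50,000/well on collagen-coated plates and treated with compound added as a 10× solution in 10% DMSO for 6 days at 37° C. Viability was measured by CellTiter-Glo luminescence in tetracycline-free medium with 2% FBS and 1% DMSO, and expressed as percent of DMSO control.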

[1] = test system: HBV viral load in AD38 cells; assay: Viral load production in AD38 cells, quantitative PCR of the core sequence in supernatant; format: cell-based; conditions: Hepatitis B virus, 144 h, 10 μM compound, 6 days at 37° C., supernatant qPCR, relative to DMSO control; read-out: AD38 Viral Load (%) (VL with cmpd/VL in DMSO control) at 10 μM

Structure (SMILES) | AD38 Viability Normalized Result (cmpd/DMSO %) at 10 μM (AD38 cells) [%] | activity at 10 µM [1] [%]
Cl.NCCCOc1ccc(-c2ncc(CNC(=O)c3ccc4c(c3)NC(=O)c3ccccc3S4(=O)=O)s2)cc1 [compound 1988, N-((2-(4-(3-aminopropoxy)phenyl)thiazol-5-yl)methyl)-11-oxo-10, 11-dihydrodibenzo [b, f] [1, 4] thiazepine-8-carboxamide 5,5-dioxide hydrochloride] | 103 | 1.3
O=C(NCc1cnc(-c2ccc(-n3cccn3)cc2)s1)c1ccc2c(c1)NC(=O)c1ccccc1S2(=O)=O [compound 1952, N-((2-(4-(1H-pyrazol-1-yl)phenyl)thiazol-5-yl)methyl)-11-oxo-10, 11-dihydrodibenzo [b, f] [1, 4] thiazepine-8-carboxamide 5,5-dioxide] | 106 | 0.8
CN1CCN(c2ncc(CNC(=O)c3ccc4c(c3)NC(=O)c3ccccc3O4)s2)CC1 [compound 1694] | 91 | 61.1
O=C(NCc1cnc(-c2ccc(OCCCN3CCC[C@H]3C(=O)O)cc2)s1)c1ccc2c(c1)NC(=O)c1ccccc1S2(=O)=O [compound 11106, (3-(4-(5-((5,5-dioxido-11-oxo-10, 11-dihydrodibenzo [b, f] [1, 4]thiazepine-8-carboxamido)methyl)thiazol-2-yl)phenoxy)propyl)-L-proline] | 97 | 3.3
O=C(O)COc1ccc(-c2ncc(CNC(=O)c3ccc4c(c3)NC(=O)c3ccccc3S4)s2)cc1 [compound 1607, 2-(4-(5-((11-oxo-10, 11-dihydrodibenzo [b, f] [1, 4]thiazepine-8-carboxamido)methyl)thiazol-2-yl)phenoxy) acetic acid] | 98 | 52.8
NS(=O)(=O)c1ccc(-c2ncc(CNC(=O)c3ccc4c(c3)NC(=O)c3ccccc3O4)s2)cc1 [compound 1862] | 107 | 19.9
CC(C)(C)OC(=O)NC1CCN(Cc2ncc(CNC(=O)c3ccc4c(c3)NC(=O)c3ccccc3S4(=O)=O)s2)CC1 [1885-A] | 107 | 4.5
O=C(NCc1cnc(N2CCOCC2)s1)c1ccc2c(c1)NC(=O)c1ccccc1S2 [compound 1598] | 97 | 1.4
COC(=O)c1ccc(-c2ncc(CNC(=O)c3ccc4c(c3)NC(=O)c3ccccc3O4)s2)cc1 [1612-A, methyl 4-(5-((11-oxo-10, 11-dihydrodibenzo [b, f] [1, 4]oxazepine-8-carboxamido)methyl)thiazol-2-yl) benzoate] | 101 | 12.4
COc1ncc(-c2ncc(CNC(=O)c3ccc4c(c3)NC(=O)c3ccccc3O4)s2)cn1 [1709-A, N-((2-(2-methoxypyrimidin-5-yl)thiazol-5-yl)methyl)-11-oxo-10, 11-dihydrodibenzo [b, f] [1, 4] oxazepine-8-carboxamide] | 106 | 29.5
Cc1c(C(=O)NCc2cnc(-c3ccc(C#N)cc3)s2)cc(Br)c2c1NC(=O)c1ccccc1S2 [compound 1915] | 100 | 15.7
Nc1ccc(-c2ncc(CNC(=O)c3ccc4c(c3)NC(=O)c3ccccc3S4(=O)=O)s2)cc1 [1645-B, N-((2-(4-aminophenyl)thiazol-5-yl)methyl)-11-oxo-10, 11-dihydrodibenzo [b, f] [1, 4] thiazepine-8-carboxamide 5,5-dioxide] | 100 | 77.8
O=C(NCc1cnc(-n2cc(F)cn2)s1)c1ccc2c(c1)NC(=O)c1ccccc1S2(=O)=O [compound 11038] | 99 | 2
CCCCN1c2ccc(C(=O)NCc3cnc(C(F)(F)F)s3)cc2NC(=O)c2ccccc21 [compound 1922] | 39 | 60.3
O=C(NCc1cnc(N2CCCCCC2)s1)c1ccc2c(c1)NC(=O)c1ccccc1S2(=O)=O [compound 1907] | 85 | 0.5
Cc1c(C(=O)NCc2cnc(C(F)(F)F)s2)cc(Br)c2c1NC(=O)c1ccccc1S2 [compound 1914] | 77 | 120
O=C(NCc1cnc(-c2ccc(O)nc2)s1)c1ccc2c(c1)NC(=O)c1ccccc1O2 [compound 1706, N-((2-(6-hydroxypyridin-3-yl)thiazol-5-yl)methyl)-11-oxo-10, 11-dihydrodibenzo [b, f] [1, 4] oxazepine-8-carboxamide] | 103 | 57.5
Nc1ccnc(-c2ncc(CNC(=O)c3ccc4c(c3)NC(=O)c3ccccc3S4(=O)=O)s2)c1 [compound 1888, N-((2-(4-aminopyridin-2-yl)thiazol-5-yl)methyl)-11-oxo-10,11-dihydrodibenzo [b, f] [1, 4] thiazepine-8-carboxamide 5,5-dioxide, TFA salt] | 100 | 1.2

Structure (SMILES) | AD38 Viability Normalized Result (cmpd/DMSO %) at 10 μM (AD38 cells) [%] | activity at 10 µM [1] [%]
CC(C)c1ncc(CNC(=O)c2ccc3c(c2)NC(=O)c2ccccc2S3(=O)=O)s1 [compound 1552] | 102 | 0.4
O=C(NCc1cnc(-c2ccc(OCCCNCC(F)(F)F)cc2)s1)c1ccc2c(c1)NC(=O)c1ccccc1S2(=O)=O [compound 11102] | 93 | 0.5
Cl.O=C(NCc1cnc(-c2ccc(N3CCNCC3)nc2)s1)c1ccc2c(c1)NC(=O)c1ccccc1S2(=O)=O [compound 11019, 11-oxo-N-((2-(6-(piperazin-1-yl)pyridin-3-yl)thiazol-5-yl)methyl)-10, 11-dihydrodibenzo [b, f] [1, 4] thiazepine-8-carboxamide 5,5-dioxide hydrochloride] | 93 | 14.3
CC(C)(C)NC(=O)c1ccc(-c2ncc(CNC(=O)c3ccc4c(c3)NC(=O)c3ccccc3S4(=O)=O)s2)cc1 [compound 1947] | 101 | 2.3
CN(C)CCCOc1ncc(CN(C)C(=O)c2ccc3c(c2)NC(=O)c2ccccc2O3)s1 [compound 1687, N-((2-(3-(dimethylamino)propoxy)thiazol-5-yl)methyl)-N-methyl-11-oxo-10, 11-dihydrodibenzo [b, f] [1, 4] oxazepine-8-carboxamide] | 102 | 49.2
COc1ccc(-c2ncc(CNC(=O)c3ccc4c(c3)NC(=O)c3ccccc3O4)s2)cc1C [1736-A] | 97 | 14.1
O=C(NCc1cnc(-c2ccccc2)s1)c1ccc2c(=O)c3ccccc3c(=O)[nH]c2c1 [compound 1594] | 105 | 0.9
O=C(NCc1cnc(C(F)(F)F)s1)c1ccc2c(c1)NC(=O)c1ccccc1N2CCO [compound 11078] | 96 | 45.7
CC(=O)NCCCOc1ccc(-c2ncc(CNC(=O)c3ccc4c(c3)NC(=O)c3ccccc3S4(=O)=O)s2)cc1 [compound 1991] | 98 | 2
CN1c2ccc(C(=O)NCc3cnc(-c4ccc(C#N)cc4)s3)cc2NC(=O)c2ccccc21 [compound 1974] | 103 | 15.3
CN(C)c1ccc(-c2ncc(CNC(=O)c3ccc4c(c3)NC(=O)c3ccccc3O4)s2)cc1 [compound 1697] | 90 | 5.5
Nc1ccc(-c2ncc(CNC(=O)c3ccc4c(c3)NC(=O)c3ccccc3S4(=O)=O)s2)cn1 [compound 1672] | 101 | 0.6
CNC(=O)c1ccc(-c2ncc(CNC(=O)c3ccc4c(c3)NC(=O)c3ccccc3S4(=O)=O)s2)cc1 [compound 1943] | 98 | 1.9
Cc1c(C(=O)NCc2cnc(-n3cccn3)s2)ccc2c1NC(=O)c1ccccc1S2 [C20-02] | 95 | 0.5
Cc1ncc(CNC(=O)c2ccc3c(c2)NC(=O)c2ccccc2[S+]3[O-])s1 (stereo not drawn) [compound 1526] | 94 | 0.8
Cl.NCc1cnc(-c2ncc(CNC(=O)c3ccc4c(c3)NC(=O)c3ccccc3S4)s2)s1 [compound 1735, N-((5′-(aminomethyl)-[2, 2′-bithiazol]-5-yl)methyl)-11-oxo-10, 11-dihydrodibenzo [b, f] [1, 4] thiazepine-8-carboxamide hydrochloride] | 92 | 3.1
CN(C)c1ccc(-c2ncc(CNC(=O)c3ccc4c(c3)NC(=O)c3ccccc3S4(=O)=O)s2)cn1 [compound 1674] | 121 | 0.3
COc1ncc(-c2ncc(CNC(=O)c3ccc4c(c3)NC(=O)c3ccccc3S4(=O)=O)s2)cn1 [1671-A, N-((2-(2-methoxypyrimidin-5-yl)thiazol-5-yl)methyl)-11-oxo-10, 11-dihydrodibenzo [b, f] [1, 4] thiazepine-8-carboxamide 5,5-dioxide] | 111 | 0.7
